Patent publication US7737143B2, “Substituted pyrazines as kinase inhibitors” (YM Biosciences Australia Pty Ltd, priority 2003, dated 2010)

How the values were obtained:
Assay type in all cases: biochemical
[1] = target: T1, human JAK3 (Homo sapiens, UniProt P52333); test: JAK kinase assay (ELISA or Alphascreen), Jak3; settings: standard conditions, read-out: Jak3 inhibition of enzyme activity
T1 construct: The kinase domain of human JAK3 was amplified from U937mRNA; His tag (pFastBac HTb vector; nickel chelate purification) (N); made in house; host or cells: baculovirus; Sf9 for virus, High Five insect cells for production
T1 sequence (P52333 822-1111 limits assumed): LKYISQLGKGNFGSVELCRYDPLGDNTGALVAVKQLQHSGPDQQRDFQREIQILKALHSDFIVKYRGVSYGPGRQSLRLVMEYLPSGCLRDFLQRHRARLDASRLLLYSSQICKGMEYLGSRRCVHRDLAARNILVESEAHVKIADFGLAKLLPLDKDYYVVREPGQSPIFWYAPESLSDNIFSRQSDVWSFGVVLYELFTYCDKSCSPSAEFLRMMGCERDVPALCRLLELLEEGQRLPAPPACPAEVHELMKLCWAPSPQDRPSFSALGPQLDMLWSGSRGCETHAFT
Excerpt: The kinase domain of human JAK3 was amplified from U937mRNA using the polymerase chain reaction with the following primers: […]
JAK3 PCR products were cloned into the pFastBac HTb expression vector (Gibco) via the Xho I and Kpn I sites. The JAK3 plasmid was then transformed into competent DH10Bac cells (Gibco), and the recombinant baculovirus produced prepared for transfection into Sf9 insect cells.
(§1) Baculovirus preparations from each of the JAK family members were infected into five litres of High Five cells (Invitrogen) grown in High Five serum free medium (Invitrogen) to a cell density of approximately 1-2×10^6 cells/ml. Cells are infected with virus at a MOI of 0.8-3.0. Cells were harvested and lysed. JAK kinase domains were purified by affinity chromatography on a Probond (Invitrogen) nickel chelate affinity column.
(§2) Kinase assays were performed either in a 96 well capture-based ELISA assay or in 384 well Optiplates (Packard) using an Alphascreen Protein Tyrosine Kinase kit. In either case using approximately 15 μg of affinity purified PTK domain in the presence of 50 mM HEPES, pH 7.5, 10 mM MgCl2 150 mM NaCl and 10 μM-1 mM ATP. The biotinylated substrate biotin-EGPWLEEEEEAYGWMDF-NH2 (final concentration 5 μM) was used as substrate. In the ELISA assay tyrosine phosphorylation was quantitated following transfer to an avidin coated ELISA plate using peroxidase-linked anti-phospho-tyrosine antibody PY20. In the Alphascreen assay, Alphascreen phosphotyrosine acceptor beads followed by streptavidin donor beads were added under subdued light. The ELISA plates were read on a BMG Fluorostar, the Alphascreen plates were read on a Packard Fusion Alpha. Inhibitors were added to the assays fifteen minutes prior to the addition of ATP. Inhibitors were added in aqueous DMSO, with DMSO concentrations never exceeding 1%.

[2] = target: T2, human JAK2 (Homo sapiens, UniProt O60674); test: JAK kinase assay (ELISA or Alphascreen), Jak2; settings: standard conditions, read-out: Jak2 inhibition of enzyme activity
T2 construct: The kinase domain of human JAK2 was amplified from U937mRNA; His tag (pFastBac HTc vector; nickel chelate purification) (N); made in house; host or cells: baculovirus; Sf9 for virus, High Five insect cells for production
T2 sequence (O60674 849-1124 limits assumed): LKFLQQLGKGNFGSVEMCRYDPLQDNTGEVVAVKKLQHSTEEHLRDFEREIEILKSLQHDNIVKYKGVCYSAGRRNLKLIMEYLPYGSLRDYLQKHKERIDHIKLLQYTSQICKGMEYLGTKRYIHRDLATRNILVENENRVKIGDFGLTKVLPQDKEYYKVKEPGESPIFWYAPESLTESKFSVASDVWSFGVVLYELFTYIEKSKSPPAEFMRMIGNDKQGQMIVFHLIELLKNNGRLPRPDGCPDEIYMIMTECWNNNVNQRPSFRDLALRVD
Excerpt: The kinase domain of human JAK2 was amplified from U937mRNA using the polymerase chain reaction with the following primers: […]
JAK2 PCR products were cloned into the pFastBac HTc expression vector (Gibco) via the Sal I and Not I sites. The JAK2 plasmid was then transformed into competent DHL10Bac cells (Gibco), and the recombinant baculovirus produced prepared for transfection into Sf9 insect cells.
as §1, §2

[3] = target: kdr (Homo sapiens, UniProt P35968); test: Kinase assay (ELISA or Alphascreen), kdr; settings: standard conditions, read-out: kdr inhibition of enzyme activity
Chain of kdr (P35968 834-1162 limits assumed, species assumed): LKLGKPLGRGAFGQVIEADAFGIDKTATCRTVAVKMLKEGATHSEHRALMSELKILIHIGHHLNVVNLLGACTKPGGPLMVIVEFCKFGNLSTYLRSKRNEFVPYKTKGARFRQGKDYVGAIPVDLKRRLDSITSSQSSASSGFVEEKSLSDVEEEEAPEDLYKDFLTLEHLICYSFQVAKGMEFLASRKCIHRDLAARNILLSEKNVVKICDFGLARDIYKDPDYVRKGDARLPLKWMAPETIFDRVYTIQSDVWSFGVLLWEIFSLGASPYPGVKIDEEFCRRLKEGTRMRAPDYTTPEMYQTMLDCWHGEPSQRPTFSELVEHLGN
Procedure: as §2

inhibition at 20 µM [1] [%] | inhibition at 20 µM [2] [%] | inhibition at 20 µM [3] [%] | Compound
≥ 50 | ≥ 50 | – | C[C@H](Nc1cncc(-n2cnc3cc(NS(=O)(=O)c4ccccc4)ccc32)n1)c1ccccc1
< 50 | < 50 | – | CC(Nc1cncc(-n2cnc3ccccc32)n1)c1cccc(Cl)c1 (stereo not drawn)
< 50 | < 50 | – | CC(Nc1cncc(-n2cnc3ccccc32)n1)c1ccc(-n2ccnc2)cc1 (stereo not drawn)
< 50 | < 50 | ≥ 50 | CC(Nc1cncc(-n2cnc3ccccc32)n1)c1ccncc1 (stereo not drawn)
< 50 | ≥ 50 | – | c1ccc2c(c1)ncn2-c1cncc(-c2ccncc2)n1
< 50 | ≥ 50 | – | c1cncc(-c2cncc(-n3cnc4ccccc43)n2)c1
≥ 50 | ≥ 50 | – | O=S(=O)(Nc1ccc(-c2cncc(-n3cnc4ccccc43)n2)cc1)c1ccccc1
< 50 | ≥ 50 | – | CCCC(Nc1cncc(-n2cnc3ccccc32)n1)c1ccccc1 (stereo not drawn)
< 50 | < 50 | ≥ 50 | COc1cccc([C@H](C)Nc2cncc(-n3cnc4ccccc43)n2)c1
< 50 | ≥ 50 | ≥ 50 | CC(Nc1cncc(-n2cnc3ccc(CO)cc32)n1)c1ccc(F)cc1 (stereo not drawn)
< 50 | < 50 | ≥ 50 | CC(Nc1cncc(-n2cnc3cc(CO)ccc32)n1)c1ccc(F)cc1 (stereo not drawn)
< 50 | < 50 | – | CC(Nc1cncc(-n2cnc3ccc(CN4CCN(C)CC4)cc32)n1)c1ccc(F)cc1 (stereo not drawn)
< 50 | < 50 | – | CCN(CC)Cc1ccc2ncn(-c3cncc(NC(C)c4ccc(F)cc4)n3)c2c1 (stereo not drawn)
< 50 | < 50 | ≥ 50 | CNCCN(C)Cc1ccc2ncn(-c3cncc(NC(C)c4ccc(F)cc4)n3)c2c1 (stereo not drawn)
< 50 | < 50 | – | CC(Nc1cncc(-n2cnc3cc(CNCCN(C)C)ccc32)n1)c1ccc(F)cc1 (stereo not drawn)
< 50 | < 50 | – | CC(Nc1cncc(-n2cnc3ccncc32)n1)c1ccc(F)cc1 (stereo not drawn)
< 50 | < 50 | – | C[C@H](Nc1cncc(-n2cnc3cc(CO)ccc32)n1)c1ccc(F)cc1
≥ 50 | ≥ 50 | – | C[C@H](Nc1cncc(-n2cnc3ccc(CN4CCCCC4)cc32)n1)c1ccc(F)cc1
< 50 | ≥ 50 | – | C[C@H](Nc1cncc(-n2cnc3ccc(CN4CCC(O)CC4)cc32)n1)c1ccc(F)cc1
< 50 | < 50 | – | C[C@H](Nc1cncc(-n2cnc3ccc(CN4CCN(CCN)CC4)cc32)n1)c1ccc(F)cc1
< 50 | < 50 | – | CC(Nc1cncc(-n2cnc3ccc(C#N)cc32)n1)c1cccc2ccccc12 (stereo not drawn)

inhibition at 20 µM [1] [%] | inhibition at 20 µM [2] [%] | inhibition at 20 µM [3] [%] | Compound
< 50 | ≥ 50 | – | C[C@H](Nc1cncc(-n2cnc3ccc(-c4nn[nH]n4)cc32)n1)c1ccc(F)cc1
≥ 50 | ≥ 50 | – | C[C@H](Nc1cncc(-n2cnc3cc(C#N)ccc32)n1)c1ccccc1
≥ 50 | ≥ 50 | – | C[C@H](Nc1cncc(-n2cnc3ccc(C#N)cc32)n1)c1ccccc1
< 50 | < 50 | – | C[C@H](Nc1cncc(-n2ncc3ccccc32)n1)c1ccc(F)cc1
< 50 | < 50 | – | C[C@H](Nc1cncc(-n2cc3ccccc3n2)n1)c1ccc(F)cc1
≥ 50 | ≥ 50 | – | CC(Nc1cncc(-n2cnc3ccc(C#N)cc32)n1)c1ccc(F)c(F)c1 (stereo not drawn)
≥ 50 | ≥ 50 | – | CC(Nc1cncc(-n2cnc3cc(C#N)ccc32)n1)c1ccc(F)c(F)c1 (stereo not drawn)
≥ 50 | ≥ 50 | – | CC(Nc1cncc(-n2cnc3cc(C#N)ccc32)n1)c1cccc(F)c1 (stereo not drawn)
< 50 | < 50 | – | N#Cc1ccc2ncn(-c3cncc(N[C@H]4CCCc5ccccc54)n3)c2c1
< 50 | ≥ 50 | – | CC(Nc1cncc(-n2cnc3cc(C#N)ccc32)n1)c1cc(F)cc(F)c1 (stereo not drawn)
< 50 | ≥ 50 | – | CC(Nc1cncc(-n2cnc3ccc(C#N)cc32)n1)c1cccc(C(F)(F)F)c1 (stereo not drawn)
< 50 | < 50 | – | CC(Nc1cncc(-n2cnc3cc(C#N)ccc32)n1)c1cccc(C(F)(F)F)c1 (stereo not drawn)
≥ 50 | ≥ 50 | – | CC(Nc1cncc(-n2cnc3ccc(C#N)cc32)n1)c1ccc(F)c(Cl)c1 (stereo not drawn)
< 50 | < 50 | – | CC(Nc1cncc(-n2cnc3ccc(C#N)cc32)n1)c1cccc(OC(F)(F)F)c1 (stereo not drawn)
< 50 | < 50 | – | CC(Nc1cncc(-n2cnc3cc(C#N)ccc32)n1)c1cccc(OC(F)(F)F)c1 (stereo not drawn)
< 50 | < 50 | – | N#Cc1ccc2ncn(-c3cncc(NC4Cc5ccccc5C4)n3)c2c1
< 50 | < 50 | – | N#Cc1ccc2c(c1)ncn2-c1cncc(NC2Cc3ccccc3C2)n1
< 50 | < 50 | – | N#Cc1ccc2ncn(-c3cncc(N4CCc5ccccc5C4)n3)c2c1
< 50 | < 50 | – | N#Cc1ccc2c(c1)ncn2-c1cncc(N2CCc3ccccc3C2)n1
≥ 50 | ≥ 50 | – | CC[C@H](Nc1cncc(-n2cnc3ccc(C#N)cc32)n1)c1ccccc1
< 50 | < 50 | – | C[C@H](Nc1cncc(-n2cnc3cccnc32)n1)c1ccccc1

inhibition at 20 µM [1] [%] | inhibition at 20 µM [2] [%] | inhibition at 20 µM [3] [%] | Compound
< 50 | < 50 | – | C[C@H](Nc1cncc(-n2cnc3ncccc32)n1)c1ccccc1
< 50 | < 50 | – | C[C@H](Nc1cncc(-n2cnc3cccnc32)n1)c1ccc(F)cc1
< 50 | < 50 | – | C[C@H](Nc1cncc(-n2cnc3ncccc32)n1)c1ccc(F)cc1
< 50 | ≥ 50 | – | Cc1ccc([C@H](C)Nc2cncc(-n3cnc4cc(C#N)ccc43)n2)cc1
≥ 50 | ≥ 50 | ≥ 50 | C[C@@H](c1ccccc1)N(C)c1cncc(-n2cnc3ccc(C#N)cc32)n1
< 50 | < 50 | – | C[C@@H](c1ccccc1)N(C)c1cncc(-n2cnc3cc(C#N)ccc32)n1
≥ 50 | ≥ 50 | ≥ 50 | Cc1ncc(-n2cnc3cc(C#N)ccc32)nc1N[C@@H](C)c1ccccc1
≥ 50 | ≥ 50 | – | Cc1ncc(-n2cnc3ccc(C#N)cc32)nc1N[C@@H](C)c1ccccc1
< 50 | < 50 | – | N#Cc1ccc2ncn(-c3cncc(Cl)n3)c2c1
< 50 | < 50 | – | CC1CC(Nc2cncc(-n3cnc4ccc(C#N)cc43)n2)c2ccccc21 (stereo not drawn)
≥ 50 | < 50 | – | COc1cccc2c1CCC2Nc1cncc(-n2cnc3ccc(C#N)cc32)n1 (stereo not drawn)
< 50 | < 50 | – | COc1cccc2c1CCC2Nc1cncc(-n2cnc3cc(C#N)ccc32)n1 (stereo not drawn)
< 50 | < 50 | – | COc1ccc2c(c1)CCC2Nc1cncc(-n2cnc3cc(C#N)ccc32)n1 (stereo not drawn)
< 50 | < 50 | – | N#Cc1ccc2c(c1)ncn2-c1cncc(NC2CCc3ccc(O)cc32)n1 (stereo not drawn)
< 50 | < 50 | – | N#Cc1ccc2ncn(-c3cncc(NC4CCc5cc(F)ccc54)n3)c2c1 (stereo not drawn)
≥ 50 | < 50 | – | N#Cc1ccc2ncn(-c3cncc(NC4CCc5cc(Br)ccc54)n3)c2c1 (stereo not drawn)
< 50 | < 50 | – | N#Cc1ccc2c(c1)ncn2-c1cncc(NC2CCc3cc(Br)ccc32)n1 (stereo not drawn)
≥ 50 | ≥ 50 | – | CC(Nc1cncc(-n2cnc3ccc(C#N)cc32)n1)c1ccccn1 (stereo not drawn)
< 50 | ≥ 50 | – | CC(Nc1cncc(-n2cnc3cc(C#N)ccc32)n1)c1ccccn1 (stereo not drawn)
